Data taken from patent publication USRE42013E1, “Macrocyclic modulators of the ghrelin receptor” (Tranzyme Pharma Inc., priority 2003, dated 2010).
Where two headings read alike, the source gives them in different places.

Key:
[1] = biological target: human ghrelin receptor (hGHS-R1a) (Homo sapiens, UniProt Q92847); assay: cell-based
Description: B. Aequorin Functional Assay (Ghrelin Receptor)
This cell line is typically constructed by transfection of the human ghrelin receptor into CHO-K1 cells co-expressing Gα16 and the mitochondrially targeted Aequorin (Ref #ES-WT-A5). • 1. […] Assay buffer: DMEM (Dulbecco's Modified Eagles Medium) containing 0.1% BSA (bovine serum albumin; pH 7.0). • 3. Coelenterazine (Molecular Probes, Leiden, The Netherlands). Final test concentrations (N=8) for compounds of the invention: 10, 1, 0.3, 0.1, 0.03, 0.01, 0.003, 0.001 μM. Compound Handling
Assay plates were then prepared by appropriate dilution in DMEM medium containing 0.1% BSA. Under these conditions, the maximal final DMSO concentration in the assay was <0.6%.
AequoScreen™ cells were collected from culture plates with Ca^2+ and Mg^2+-free phosphate buffered saline (PBS) supplemented with 5 mM EDTA, pelleted for 2 min at 1000×g, re-suspended in DMEM—Ham's F12 containing 0.1% BSA at a density of 5×10^6 cells/mL, and incubated O/N at rt in the presence of 5 μM coelenterazinc. After loading, cells were diluted with assay buffer to a concentration of 5×10^5 cells/mL.
For agonist testing, 50 μL of the cell suspension was mixed with 50 μL of the appropriate concentration of test compound or ghrelin (reference agonist) in 96-well plates (duplicate samples). Ghrelin (reference agonist) was tested at several concentrations concurrently with the test compounds in order to validate the experiment. The emission of light resulting from receptor activation in response to ghrelin or test compounds was recorded using the Hamamatsu FDSS 6000 reader (Hamamatsu Photonics K.K., Japan).
Analysis and Expression of Results
Results were expressed as Relative Light Units (RLU). […] EC50, Hill slope and % Emax values are reported.
Key Aspects of Method • 1. Assay performed on CHO-K1 cells expressing the transfected, cloned human ghrelin receptor (hGHS-R1a) and Gα16. • 2. Suspended cells incubated O/N with coelenterazine. • 3. Stimulation of hGHS-R1a activates Gα16, causing intercellular Ca2+ release which ultimately leads to the oxidation of coelenterazine and the emission of a quantitative luminescent signal. • 4. Ghrelin was used as the positive control. • 5.

[2] = biological target: T1, human growth hormone secretagogue receptor (hGHS-R1a) (Homo sapiens, UniProt Q92847); assay: Competitive radioligand binding assay (ghrelin receptor), [125I]-ghrelin displacement
T1 construct: purchased PerkinElmer BioSignal #RBHGHSM, lot#1887; host or cells: HEK-293, stably transfected
Description: The competitive binding assay at the human growth hormone secretagogue receptor (hGHS-R1a) was carried out analogously to assays described in the literature.
Multiscreen Harvest plates-GF/C (Millipore, #MAHFC1H60) • 4. […] Bottom seal (Millipore, #MATAH0P00) • 7. […] Binding Buffer: 25 mM Hepes (pH 7.4), 1 mM CaCl2, 5 mM MgCl2, 2.5 mM EDTA, 0.4% BSA Assay Volumes
Competition experiments were performed in a 300 μl filtration assay format. • 1. 220 μL of membranes diluted in binding buffer • 2. 40 μL of compound diluted in binding buffer • 3. […] Compound Handling
Compounds were provided frozen on dry ice at a stock concentration of 10 mM diluted in 100% DMSO and stored at −80° C. until the day of testing. On the test day, compounds were allowed to thaw at rt O/N and then diluted in assay buffer according to the desired test concentrations.
Plates were sealed with TopSeal-A, vortexed gently and incubated at rt for 30 min. The reaction was arrested by filtering samples through Multiscreen Harvest plates (pre-soaked in 0.5% polyethyleneimine) using a Tomtec Harvester, washed 9 times with 500 μL of cold 50 mM Tris-HCl (pH 7.4, 4° C.), and then plates were air-dried in a fumehood for 30 min. A bottom seal was applied to the plates prior to the addition of 25 μL of MicroScint-0 to each well. […] Results were expressed as counts per minute (cpm).
Data were analyzed by GraphPad Prism (GraphPad Software, San Diego, Calif.) using a variable slope non-linear regression analysis.
Compound structures for Tables 3A, 3B and 3D are presented with the various groups as defined for the general structure of formula I. For Tables 3B and 3D, in all entries, m, n and p are 0; X, Z1 and Z2 are each NH. For Table 3B, R1 is H for all entries. The tethers (T) are illustrated with the bonding to X and Z2 as indicated. The compounds themselves are shown for Table 3C.
• 1. […] Key Aspects of Method • 1. […] Results

[3] = Table 4, binding at human ghrelin receptor, TFA salts unless otherwise noted, read-out: Ki
[4] = binding activity at the human ghrelin receptor, [125I]-ghrelin displacement, hGHS-R1a/HEK-293 membranes, read-out: Ki
[5] = Table 3B, binding at human ghrelin receptor, [125I]-ghrelin displacement, read-out: Ki
[6] = [125I]-ghrelin displacement, hGHS-R1a HEK-293 membranes, read-out: Binding Activity at the Human Ghrelin Receptor (Ki)
[7] = Table 3D, binding at human ghrelin receptor, [125I]-ghrelin displacement, read-out: Ki

T1 sequence (Q92847 whole entry): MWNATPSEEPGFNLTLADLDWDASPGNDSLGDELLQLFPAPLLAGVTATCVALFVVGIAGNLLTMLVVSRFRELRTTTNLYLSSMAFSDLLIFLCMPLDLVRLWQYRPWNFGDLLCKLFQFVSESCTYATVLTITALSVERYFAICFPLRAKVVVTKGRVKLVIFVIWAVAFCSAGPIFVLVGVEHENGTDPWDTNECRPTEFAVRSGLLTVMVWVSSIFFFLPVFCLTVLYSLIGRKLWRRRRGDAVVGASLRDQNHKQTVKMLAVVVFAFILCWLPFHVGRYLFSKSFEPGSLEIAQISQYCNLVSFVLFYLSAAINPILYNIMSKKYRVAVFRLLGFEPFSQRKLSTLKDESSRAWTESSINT
Chain of human ghrelin receptor (hGHS-R1a) (Q92847 whole entry): as above

CCC(C)C1NCCOc2ccccc2CCCNC(=O)C(Cc2cccnc2)NC(=O)C(C)N(C)C1=O (centres unmarked) [compound 170]
EC50 [1]: 0.1 to 1 µM
Ki [2, 3]: 0.01 to 0.1 µM
Ki [2, 4]: 0.01 to 0.1 µM

CCC(C)C1NCCOc2ccccc2CCCNC(=O)C(CC(C)C)NC(=O)C(C)N(C)C1=O (centres unmarked) [compound 176]
EC50 [1]: 0.001 to 0.1 µM
Ki [2, 3]: 0.01 to 0.1 µM
Ki [2, 4]: 0.01 to 0.1 µM

CC(C)C1NCCOc2ccccc2C=CCNC(=O)C(Cc2ccccc2)NC(=O)C2(CCOCC2)NC1=O (centres unmarked) [compound 140]
EC50 [1]: 0.1 to 1 µM
Ki [2, 3]: 0.1 to 1 µM
Ki [2, 4]: 0.1 to 10 µM

CC(C)CC1NCCOc2ccccc2C=CCNC(=O)C(CC(C)C)NC(=O)C2(CCCC2)NC1=O (centres unmarked) [compound 47]
EC50 [1]: 0.001 to 0.1 µM
Ki [2, 3]: 0.1 to 1 µM
Ki [2, 4]: 0.1 to 10 µM

CC1C(=O)NC(Cc2ccc(F)cc2)C(=O)NCC#Cc2ccccc2OCCNC(C2CC2)C(=O)N1C (centres unmarked) [compound 354]
EC50 [1]: 0.001 to 0.1 µM
Ki [2, 5]: < 0.1 µM
Ki [2, 3]: 0.01 to 0.1 µM

CCCC1NCCOc2ccccc2C=CCNC(=O)C(Cc2ccccc2)NC(=O)C(C)N(C)C1=O (centres unmarked) [compound 39]
EC50 [1]: 0.1 to 1 µM
Ki [2, 3]: 0.0001 to 0.01 µM
Ki [2, 4]: 0.01 to 0.1 µM

CCC(C)C1NCCOCC=CCCNC(=O)C(Cc2ccccc2)NC(=O)C(C)N(C)C1=O (centres unmarked) [compound 186]
EC50 [1]: 0.1 to 1 µM
Ki [2, 3]: 0.1 to 1 µM
Ki [2, 4]: 0.1 to 10 µM

CC1C(=O)NC(Cc2ccc(F)cc2)C(=O)NCCCc2cc(NS(C)(=O)=O)ccc2OCCNC(C2CC2)C(=O)N1C (centres unmarked) [compound 374]
EC50 [1]: 0.001 to 0.1 µM
Ki [2, 5]: < 0.1 µM
Ki [2, 3]: 0.01 to 0.1 µM

CCC(C)C1NCCOc2ccc(F)cc2CCCNC(=O)C(Cc2cccc(Cl)c2)NC(=O)C2(CCCC2)NC1=O (centres unmarked) [compound 382]
EC50 [1]: 0.1 to 1 µM
Ki [2, 5]: < 0.1 µM
Ki [2, 3]: 0.01 to 0.1 µM

CCC(C)C1NCCCc2ccccc2C=CCCNC(=O)C(Cc2ccccc2)NC(=O)C(C)N(C)C1=O (centres unmarked) [compound 191]
EC50 [1]: 0.1 to 1 µM
Ki [2, 3]: 0.1 to 1 µM
Ki [2, 6]: 0.1 to 10 µM

CCC(C)C1NCCOc2ccc(C(=O)O)cc2CCCNC(=O)C(Cc2ccccc2)NC(=O)C(C)N(C)C1=O (centres unmarked) [compound 197]
EC50 [1]: > 1 µM
Ki [2, 3]: 0.1 to 1 µM
Ki [2, 6]: 0.1 to 10 µM

CC1C(=O)NC(Cc2c(F)c(F)c(F)c(F)c2F)C(=O)NCCCc2ccccc2OCCNC(C2CC2)C(=O)N1C (centres unmarked) [compound 318]
EC50 [1]: 0.001 to 0.1 µM
Ki [2, 5]: 0.0001 to 0.01 µM
Ki [2, 3]: 0.0001 to 0.01 µM

CCCC1NCCOc2ccccc2C=CCNC(=O)C(Cc2ccccc2)NC(=O)CN(C)C1=O (centres unmarked) [compound 11]
EC50 [1]: 0.1 to 1 µM
Ki [2, 3]: 0.01 to 0.1 µM
Ki [2, 4]: 0.01 to 0.1 µM

CC1COc2ccccc2CCCNC(=O)C(Cc2ccc(F)cc2)NC(=O)C(C)N(C)C(=O)C(C2CC2)N1 (centres unmarked) [compound 394]
EC50 [1]: 0.1 to 1 µM
Ki [2, 5]: 0.0001 to 0.01 µM
Ki [2, 3]: 0.0001 to 0.01 µM

CCCC1NCCOc2ccccc2C=CCNC(=O)C(Cc2ccccc2)NC(=O)C2(CCCC2)NC1=O (centres unmarked) [compound 137]
Ki [2, 4]: 0.01 to 0.1 µM

CCC(C)C1NCCOc2ccccc2C=CCNC(=O)C(Cc2cccc(C#N)c2)NC(=O)C2(CCCC2)NC1=O (centres unmarked) [compound 329]
Ki [2, 5]: < 0.1 µM

CCC(C)C1NCCCCCCCNC(=O)C(Cc2cccc(Cl)c2)NC(=O)C2(CCCC2)NC1=O (centres unmarked) [compound 366]
Ki [2, 5]: 0.1 to 10 µM

CCCC1NCCOc2ccccc2CCCNC(=O)C(Cc2ccccc2)NC(=O)C(CCCCN)NC1=O (centres unmarked) [compound 69]
Ki [2, 4]: > 10 µM

CCC(C)C1NCCOc2ccccc2C=CCNC(=O)C(Cc2cccc(Cl)c2)NC(=O)C2(CCCC2)NC1=O (centres unmarked) [compound 380]
Ki [2, 5]: 0.1 to 10 µM

CC1C(=O)NC(Cc2ccc(F)cc2)C(=O)NCCOc2cccc(c2)OCCNC(C2CC2)C(=O)N1C (centres unmarked) [compound 377]
Ki [2, 5]: 0.1 to 10 µM

CC(C)C1NCCOc2ccccc2C=CCNC(=O)C(Cc2ccccc2)NC(=O)C2(CCCC2)NC1=O (centres unmarked) [compound 200]
Ki [2, 6]: 0.01 to 0.1 µM

COCC1NCCOc2ccccc2C=CCNC(=O)C(Cc2cccc(Cl)c2)NC(=O)C2(CCCC2)NC1=O (centres unmarked) [compound 344]
Ki [2, 5]: 0.1 to 10 µM

O=C1NC2(CCCC2)C(=O)NC(Cc2ccccc2)C(=O)NCC=Cc2ccccc2OCCNC1Cc1ccccn1 (centres unmarked) [compound 210]
Ki [2, 6]: > 1 µM

CCC(C)C1NCCOc2cc(F)ccc2CCCNC(=O)C(Cc2cccc(Cl)c2)NC(=O)C2(CCCC2)NC1=O (centres unmarked) [compound 383]
Ki [2, 5]: 0.1 to 10 µM

CCC(C)C1NCCOc2ccccc2CCCNC(=O)C(Cc2ccccc2)NC(=O)C(C(C)CC)N(C)C1=O (single isomer, unassigned) [150b]
Ki [2, 4]: > 10 µM

CC(C)CC1NCCOc2ccccc2C=CCNC(=O)C(Cc2cccc3ccccc23)NC(=O)C2(CCCC2)NC1=O (centres unmarked) [compound 22]
Ki [2, 4]: 0.01 to 0.1 µM

CCOC(=O)CCC1NC(=O)C2(CCCC2)NC(=O)C(CC(C)C)NCCOc2ccccc2C=CCNC1=O (centres unmarked) [compound 116]
Ki [2, 4]: 1 to 10 µM

CCC(C)C1NCCCCCCCCNC(=O)C(Cc2cccc(Cl)c2)NC(=O)C2(CCCC2)NC1=O (centres unmarked) [compound 363]
Ki [2, 5]: 0.1 to 10 µM
Ki [2, 3]: 0.1 to 1 µM

CCC(C)C1NCCOc2ccccc2CCCNC(=O)C(Cc2ccc(F)cc2)NC(=O)C(COCc2ccccc2)N(C)C1=O (centres unmarked) [compound 440]
Ki [2, 7]: 0.1 to 10 µM

CC1CNC(=O)C(Cc2ccc(F)cc2)NC(=O)C(C)N(C)C(=O)C(C2CC2)NCCOc2ccccc2C1 (centres unmarked) [compound 376]
Ki [2, 5]: 0.1 to 10 µM

CCC(C)C1NCCOCCCCCNC(=O)C(Cc2cccc(Cl)c2)NC(=O)C2(CCCC2)NC1=O (centres unmarked) [compound 370]
Ki [2, 5]: 0.1 to 10 µM

CC1C(=O)NC(Cc2c[nH]c3ccccc23)C(=O)NCCCc2ccccc2OCCNC(C2CC2)C(=O)N1C (centres unmarked) [compound 324]
Ki [2, 5]: < 0.1 µM

CCC(C)C1NCCCCCNC(=O)C(Cc2cccc(Cl)c2)NC(=O)C2(CCCC2)NC1=O (centres unmarked) [compound 447]
Ki [2, 7]: 1 to 10 µM

CC1C(=O)NC(Cc2ccc(F)cc2)C(=O)NCCCc2cc(Cl)ccc2OCCNC(C2CC2)C(=O)N1C (centres unmarked) [compound 373]
Ki [2, 5]: < 0.1 µM

O=C1NC2(CCCC2)C(=O)NC(Cc2ccccc2)C(=O)NCC=Cc2ccccc2OCCNC1Cc1ccc2ccccc2c1 (centres unmarked) [compound 131]
Ki [2, 4]: 0.1 to 10 µM

CC(C)CC1NCCOc2ccccc2C=CCNC(=O)C2(CCCC2)NC(=O)C2(CCCC2)NC1=O (centres unmarked) [compound 168]
Ki [2, 4]: 0.1 to 10 µM

CCCC1NCc2ccccc2Sc2ccccc2CNC(=O)C(Cc2ccccc2)NC(=O)CN(C)C1=O (centres unmarked) [compound 77]
Ki [2, 4]: 0.1 to 10 µM

CC1C(=O)NC(Cc2ccc(F)cc2)C(=O)NCCCCCOCCNC(C2CC2)C(=O)N1C (centres unmarked) [compound 398]
Ki [2, 5]: 0.1 to 10 µM

CCC(C)C1NCCOc2ccccc2C=CCNC(=O)C(Cc2ccsc2)NC(=O)C2(CCCC2)NC1=O (centres unmarked) [compound 333]
Ki [2, 5]: 0.1 to 10 µM

CCCC1NCCOc2ccccc2CCCNC(=O)C(CO)NC(=O)CN(C)C1=O (centres unmarked) [compound 54]
Ki [2, 4]: > 10 µM

CC1C(=O)NC(Cc2ccc(F)cc2)C(=O)NCC2CC2c2ccccc2OCCNC(C2CC2)C(=O)N1C (centres unmarked) [compound 379]
Ki [2, 5]: < 0.1 µM

CCC(C)C1NCCOc2ccccc2CCNC(=O)C(Cc2ccccc2)NC(=O)C(C)N(C)C1=O (centres unmarked) [compound 178]
Ki [2, 3]: 0.1 to 1 µM
Ki [2, 4]: 0.1 to 10 µM

CCC[C@@H]1NCCOc2ccccc2CCCNC(=O)[C@@H](Cc2ccccc2)NC(=O)CN(CC)C1=O [compound 5]
Ki [2, 4]: 0.1 to 10 µM

CCC(C)C1NCCOc2ccc(Cl)cc2CCCNC(=O)C(Cc2cccc(Cl)c2)NC(=O)C2(CCCC2)NC1=O (centres unmarked) [compound 384]
Ki [2, 5]: 0.1 to 10 µM

CC(C)CC1NCCOc2ccccc2C=CCNC(=O)C(C(c2ccccc2)c2ccccc2)NC(=O)C2(CCCC2)NC1=O (centres unmarked) [compound 158]
Ki [2, 4]: > 1 µM

CC(=O)N1CCOc2ccccc2C=CCNC(=O)C(Cc2ccccc2)NC(=O)C2(CCCC2)NC(=O)C1CC(C)C (centres unmarked) [compound 204]
Ki [2, 6]: > 10 µM

CCC(C)C1NCCCCC=CCCNC(=O)C(Cc2ccccc2)NC(=O)C(C)N(C)C1=O (centres unmarked) [compound 183]
Ki [2, 4]: > 10 µM

CCC(C)C1NCCOCC=CCCNC(=O)C(Cc2cccc(Cl)c2)NC(=O)C2(CCCC2)NC1=O (centres unmarked) [compound 360]
Ki [2, 5]: 0.1 to 10 µM

CC1C(=O)NC(Cc2ccc(F)cc2)C(=O)NCCCc2cc(C(F)(F)F)ccc2OCCNC(C2CC2)C(=O)N1C (centres unmarked) [compound 356]
Ki [2, 5]: 0.1 to 10 µM

O=C1NC2(CCCC2)C(=O)NC(Cc2ccccc2)C(=O)NCC=Cc2ccccc2OCCNC1Cc1c[nH]cn1 (centres unmarked) [compound 219]
Ki [2, 6]: 0.1 to 10 µM

CC(C)C[C@@H]1NCCOc2ccccc2CCCNC(=O)[C@H](Cc2ccccc2)NC(=O)[C@H]2CCCN2C1=O [compound 223]
Ki ([2]; Table 3E, binding activity at the human ghrelin receptor, class symbols, read-out: Ki): 1 to 10 µM

CCC(C)C1NCCOc2ccccc2CCCNC(=O)C(C(c2ccccc2)c2ccccc2)NC(=O)C(C)N(C)C1=O (centres unmarked) [compound 29]
Ki [2, 4]: 0.01 to 0.1 µM

CC1C(=O)NC(Cc2ccc(F)cc2)C(=O)NCC=Cc2ccccc2OCCNC(C2CC2)C(=O)N1C (centres unmarked) [compound 400]
Ki [2, 5]: < 0.1 µM
